Reference: patent publication US10077288B2, “Hydroxystatin derivatives for the treatment of arthrosis” (Merck Patent GmbH, priority 2012, dated 2018)
*1 amine or outer side, *2 acyl side, *3 side chain or, on linkers, in order; H or OH if unused. Where a SMILES comes first, the peptide text is derived from it. [ ]: non-standard residue; d: D form. The star is where a group is joined. Ahppa(3S,4S) = O=C(C[C@H](O)[C@H](Cc1ccccc1)N[*:1])[*:2]; Sta = CC(C)C[C@H](N)[C@@H](O)CC(=O)O; Isovaleryl = CC(C)CC(=O)*

Assays:
[1] = target: T1, cathepsin D isolated from the human liver (Homo sapiens, UniProt P07339); experiment: In-vitro fluorescence assay for identification of cathepsin D inhibitors; assay type: biochemical; conditions: human liver cathepsin D 1.4 nM, pH 5.5; read-out: CatD assay IC50-(M)
T1 construct: cathepsin D isolated from the human liver (Sigma-Aldrich); purchased Sigma-Aldrich; host or cells: human liver (tissue-derived, not recombinant)
Summary of the method: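 Continuous FRET assay: human liver cathepsin D (1.4 nM final) preincubated 10 min at room temperature with serially diluted compound in 100 mM sodium acetate, 1.25% DMSO, 0.25% Chaps, pH 5.5. Started with 5 μM MCA-GKPILFFRLK(Dnp)d-R-NH2; fluorescence increase (ex 340/em 450 nm) over 60 min at room temperature compared with no-compound control.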

[2] = test system: bovine explants (cartilage degradation, liberation of GAG); experiment: Cartilage explant assay: pH-induced cartilage degradation, GAG release; assay type: cell-based; conditions: Bos taurus, 72 h, pH 5.5, 3 days
Source text: EXAMPLE 5: CARTILAGE EXPLANT ASSAY
In order to investigate the effect of potential cathepsin D inhibitors on cartilage degradation, a pH-induced model based on bovine explants is used. The pH of the medium in which the explants are cultivated is matched here to the pathophysiological pH of an arthrotic knee. This pH is pH 5.5. In this ex vivo model, potential cathepsin D inhibitors are subsequently investigated for their action with respect to stopping of the cartilage degradation process. If the cartilage is destroyed, glycosaminoglycans (GAGs) are released into the cell culture supernatant. The amount of GAGs liberated can be determined quantitatively with the aid of DMMB (dimethylmethylene blue hydrochloride). If sulfated GAGs are detected using dimethylmethylene blue hydrochloride, the decrease in the absorption at 633 nm is utilised. […] In order to determine the concentration, a calibration line is also recorded using chondroitin sulfate.
1.) Procedure: pH-Induced Cartilage Degradation of Bovine Explants
The bovine explants are firstly prepared. The induction of the cartilage degradation is carried out in 96-multiwell plates. One explant is cultivated per well. In each case, 200 μl of DMEM (incubation medium pH 5.5) without FBS+30 μg/ml of ascorbic acid are added. Thus negative control, explants (n=4) are incubated at pH 7.4 (without FBS). This control is not included in the calculation of the data, but instead ensures that the pH change has the desired effect on the liberation of GAG. At this point, the substances to be tested are added. No pre-incubation of the explants is carried out. The explants are cultivated with the corresponding substances for 3 days in the incubator at 37° C. and 7.5% CO2.
In order to investigate the effect of cathepsin D inhibitors on the liberation of GAG (glycosaminoglycan), the substances are employed in the desired concentration and cultivated for 3 days. The compounds to be tested are tested in a first experiment in a concentration of 1 μM and 1% of DMSO. Substances which have an effect of >50% on the liberation of GAG (this corresponds to <50% of the control in the Assay Explorer) are tested in the next experiment at 100 nM and 1% of DMSO. Substances which have an effect of >50% on the liberation of GAG under these conditions (this corresponds to <50% of the control in the Assay Explorer) are tested in a concentration/effect relationship. The compounds here are investigated in the following concentrations: 30 μM, 10 μM, 3 μM, 1 μM, 0.3 μM, 0.1 μM, 0.03 μM, 0.01 μM.
The positive control used is pepstatin A with a concentration of 0.01 μM. The assay window is defined by the control (pH 5.5), defined as 0% effect, and the control pH 5.5+0.01 μM pepstatin A, defined as 100% effect. After incubation for 3 days, the cell culture supernatants are collected and stored at −20° C. or measured directly. The amount of liberated GAG is measured photometrically.
The effect (1 value) of the respective substance in % based on the positive control (pH 5.5+0.01 μM pepstatin A) and the negative control (pH 5.5) is reported for concentrations of 1 μM and 100 nM. The value represents the average of 4 replicants. In the determination of a concentration/effect relationship, an IC50 value is reported to the database (Assay Explorer).
The cell culture supernatants (200 μl) are either measured directly or stored at −20° C. […] A rapid colour reaction occurs, which is subsequently measured at 633 nm using a plate reader (for example Envision). […]

[3] = test system: rat knee joint inflammation (CAR-induced); experiment: Anti-hyperalgesic effect in animals: carrageenan-induced knee joint inflammation, Hargreaves test and swelling; assay type: in vivo; conditions: intra-articular administration 30 minutes before CAR; for CAR-induced swelling: rat knee joint
Experimental: EXAMPLE 6: INVESTIGATION OF THE ANTI-HYPERALGESIC EFFECT IN ANIMALS
In order to induce an inflammation reaction, a carrageenan solution […]) was injected intra-articularly on one side into a rat knee joint. The uninjected side was used for control purposes. Six animals per group were used. The […] was determined by means of a micrometer screw (medial-lateral on the knee joint), and the thermal hyperalgesia was determined by means of a directed infrared light source by the Hargreaves method (Hargreaves et al., 1988) on the sole of the foot. Since the site of inflammation (knee joint) is different from the site of measurement (paw sole), use is made here of the term secondary thermal hyperalgesia, the mechanism of which is of importance for the discovery of effective analgesics.
Experimental description of thermal hyperalgesia (Hargreaves test): the experimental animal is placed in a plastic chamber on a quartz sheet. Before testing, the experimental animal is firstly given about 5-15 minutes time to familiarise itself with the environment. As soon as the experimental animal no longer moves so frequently after the familiarisation phase (end of the exploration phase), the infrared light source, whose focus is in the plane of the glass bottom, is positioned directly beneath the rear paw to be stimulated. An experiment run is then started by pressing the button: infrared light results in an increase in the skin temperature of the rear paw. The experiment is terminated either by the experimental animal raising the rear paw (as an expression of the pain threshold being reached) or by automatic switching-off of the infrared light source when a prespecified maximum temperature has been reached. Light reflected by the paw is recorded as long as the experimental animal sits still. Withdrawal of the paw interrupts this reflection, after which the infrared light source is switched off and the time from switching on to switching off is recorded. […]

[4] = test system: bovine explants (cartilage degradation, liberation of GAG); conditions: pH 5.5, explant cultures (for example from mouse, cow or human); background statement; cited from earlier work

T1 sequence (P07339 65-161 limits assumed): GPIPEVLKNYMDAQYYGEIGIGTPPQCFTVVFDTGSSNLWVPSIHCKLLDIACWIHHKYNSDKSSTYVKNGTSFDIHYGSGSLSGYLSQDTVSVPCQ
T1 sequence (P07339 169-412 limits assumed): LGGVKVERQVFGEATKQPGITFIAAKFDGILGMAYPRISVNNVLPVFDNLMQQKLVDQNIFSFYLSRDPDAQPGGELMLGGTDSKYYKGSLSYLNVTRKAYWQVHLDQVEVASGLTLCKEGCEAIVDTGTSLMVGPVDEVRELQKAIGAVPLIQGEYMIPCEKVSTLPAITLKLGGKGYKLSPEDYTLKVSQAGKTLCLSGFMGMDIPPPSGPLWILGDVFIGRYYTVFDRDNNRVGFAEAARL

Row | Structure (SMILES) | IC50 [1] [M] | IC50 [2] [nM] | CAR-induced swelling [3] | inhibition of autodigestion of the cartilage [4] | further results
1 | CC[C@H](C)[C@H](NC(=O)C[C@H](O)[C@H](Cc1ccccc1)NC(=O)[C@@H](NC(=O)[C@H](CC(C)C)NC(=O)CC(C)C)C(C)C)C(=O)N[C@H](C(=O)O)C(C)C [Compound 8, (S)-2-[(2S,3S)-2-((3S,4S)-3-hydroxy-4-{(S)-3-methyl-2-[(S)-4-methyl-2-(3-methylbutyrylamino)pentanoylamino]butyrylamino}-5-phenylpentanoylamino)-3-methylpentanoylamino]-3-methylbutyric acid] (Isovaleryl-LV[Ahppa(3S,4S)]IV-OH) | 3e-09 | 2.76 | – | – | –
2 | CC[C@H](C)[C@H](NC(=O)C[C@H](O)[C@H](Cc1ccccc1)NC(=O)[C@H](NC(=O)[C@H](CC(C)C)NC(=O)CC(C)C)C(C)C)C(=O)N[C@H](C(=O)O)C(C)C [Compound 9, (S)-2-[(2S,3S)-2-((3S,4S)-3-hydroxy-4-{(R)-3-methyl-2-[(S)-4-methyl-2-(3-methylbutyrylamino)pentanoylamino]butyrylamino}-5-phenylpentanoylamino)-3-methylpentanoylamino]-3-methylbutyric acid] (Isovaleryl-L[dV][Ahppa(3S,4S)]IV-OH) | 7.51e-08 | 31.2 | – | – | –
3 | CC[C@H](C)[C@H](NC(=O)C[C@H](O)[C@H](Cc1ccccc1)NC(=O)[C@@H](NC(=O)c1cccc(-c2ccccc2)c1)C(C)C)C(=O)N[C@H](C(=O)OCc1ccccc1)C(C)C [Compound 23, benzly (S)-2-[(2S,3S)-2-((3S,4S)-4-{(S)-2-[(biphenyl-3-carbonyl)-amino]-3-methylbutyrylamino}-3-hydroxy-5-phenylpentanoylamino)-3-methylpentanoylamino]-3-methylbutyrate] | 1.2e-05 | – | exhibited no influence on inflammatory swelling | – | thermal hyperalgesia (anti-hyperalgesic action) ([3]; rat, Hargreaves method): exerts an anti-hyperalgesic action
4 | C[C@]12C=CC(=O)C=C1CC[C@H]1[C@@H]3C[C@@H](O)[C@](O)(C(=O)CO)[C@@]3(C)C[C@H](O)[C@@]12F [TAC, Triamcinolone, reference compound] | – | – | capable of reducing the CAR-induced swelling | – | –
5 | CC(C)CC(=O)N[C@H](C(=O)N[C@H](C(=O)N[C@@H](CC(C)C)[C@@H](O)CC(=O)N[C@@H](C)C(=O)N[C@@H](CC(C)C)[C@@H](O)CC(=O)O)C(C)C)C(C)C [pepstatin] (Isovaleryl-VV[Sta]A[Sta]-OH) | – | – | – | inhibited virtually completely | –
6 | CC(C)c1nc(CN(C)C(=O)N[C@H](C(=O)N[C@@H](Cc2ccccc2)C[C@H](O)[C@H](Cc2ccccc2)NC(=O)OCc2cncs2)C(C)C)cs1 [ritonavir] | – | – | – | inhibited virtually completely | –
